Results published in ChEMBL document CHEMBL3046273, “Molecular cloning and pharmacological characterisation of a tyramine receptor from the rice stem borer, Chilo suppressalis (Walker)” (Pest Manag Sci, 2013).
pEC50: −log10 of the molar value. Counter-ions that a name gives are not always drawn. Active and inactive are the calls of the source. The rule behind the calls is not given here.

Tests used:
Type in all cases: functional, cell-based
[1] = target: T1, TyR1 (Chilo suppressalis) (UniProt H9TVJ1); assay: Agonist activity at Chilo suppressalis (rice stem borer) tyramine receptor TyR1 expressed in HEK293 cells assessed as reduction in forskolin-induced cAMP accumulation at 10 uM incubated for 20 min; set-up: scale not given: the % may be the effect or the level left
T1 sequence (whole entry): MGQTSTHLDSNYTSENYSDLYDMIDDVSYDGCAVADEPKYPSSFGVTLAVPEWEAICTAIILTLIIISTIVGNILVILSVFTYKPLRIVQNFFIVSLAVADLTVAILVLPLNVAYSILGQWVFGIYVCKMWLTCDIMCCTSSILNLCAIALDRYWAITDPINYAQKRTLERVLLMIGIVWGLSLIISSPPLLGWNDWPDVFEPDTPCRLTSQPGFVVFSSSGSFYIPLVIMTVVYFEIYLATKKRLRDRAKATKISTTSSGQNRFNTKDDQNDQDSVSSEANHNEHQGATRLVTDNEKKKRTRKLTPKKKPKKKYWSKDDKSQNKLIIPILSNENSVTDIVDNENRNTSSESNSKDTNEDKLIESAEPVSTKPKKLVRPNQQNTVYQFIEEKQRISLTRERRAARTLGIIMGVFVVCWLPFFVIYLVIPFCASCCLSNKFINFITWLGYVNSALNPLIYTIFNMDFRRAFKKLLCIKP

[2] = target: T1, TyR1 (Chilo suppressalis); assay: (§1) Agonist activity at Chilo suppressalis (rice stem borer) tyramine receptor TyR1 expressed in HEK293 cells assessed as reduction in forskolin-induced cAMP accumulation incubated for 20 min
TyR1 = target: T2, TyR1 (Chilo suppressalis, UniProt H9TVJ1); assay: as §1
T2 sequence (H9TVJ1 whole entry): T1 sequence (whole entry)

[3] = target: T1, TyR1 (Chilo suppressalis); assay: Agonist activity at Chilo suppressalis (rice stem borer) tyramine receptor TyR1 expressed in HEK293 cells assessed as reduction in forskolin-induced cAMP accumulation at < 1 umol incubated for 20 min
[4] = target: T1, TyR1 (Chilo suppressalis); assay: Agonist activity at Chilo suppressalis (rice stem borer) tyramine receptor TyR1 expressed in HEK293 cells assessed as increase in forskolin-induced cAMP accumulation at 10 uM incubated for 20 min relative to untreated control

Row | Structure (SMILES) | Activity [1] | also measured
1 | Clc1cccc(Cl)c1NC1=NCCN1 | Active | –
2 | c1ccc2c(CC3=NCCN3)cccc2c1 | inactive | –
3 | NCC(O)c1ccc(O)cc1 (racemic) [OCTOPAMINE HYDROCHLORIDE] | 56% | Activity [2]: Dose-dependent effect; pEC50 (TyR1): 6.01
4 | Cc1ccc(/N=C/N(C)/C=N/c2ccc(C)cc2C)c(C)c1 | Active | Activity [3]: inactive
5 | NCCc1ccc(O)c(O)c1 | – | fold change (FC) [4]: 2
6 | NCCc1c[nH]c2ccc(O)cc12 | inactive | Activity [4]: inactive
7 | NCCc1ccc(O)cc1 [TYRAMINE HYDROCHLORIDE] | 75% | Activity [2]: Dose-dependent effect; pEC50 (TyR1): 6.43
8 | Cc1cc(Cl)ccc1/N=C/N(C)C | inactive | –
